A short description of one series: acute toxicity. The conditions noted are these: mouse, in vivo, ICR female mice, observed 7 days. The text has this:
Each of compounds according to the invention was suspended in 0.1% P-1570 aqueous solution of sugar ester or 0.5% CMC aqueous solution. The suspension abdominally or orally dosed to ICR female mice (weight: 20±1 g).

Series [1] deals with Ehrlich ascites carcinoma (EAC). In words: carcinoma cell weight inhibiting effect in mice (EAC). The series is classed as in vivo. The conditions noted are these: ICR-CD mice; oral, 1/5 LD50 one time/day for 5 days; 21 days from final dosage. The text has this: (§1) (2) Ehrlich ascites carcinoma (hereinafter referred to as "EAC"),
(§2) Test 2 (carcinoma cell weight inhibiting effect in mice)
(§3) B-16 and EAC were given to BDF and ICR-CD mice, respectively by a hypodermic injection. 1.0×10^5 cells on B-16 and 5.0×10^6 cells on EAC were given to each mouse. Each of the compounds according to the invention was orally dosed for 5 days in an amount of 1/5 LD50 (one time/day). After lapsed 21 days from the final dosage, the carcinoma of each mouse was exenterated, measured its weight and calculated a mean weight as the inhibiting ratio which is shown in the following Table.

Series [2] deals with Lewis lung carcinoma (LLC). The series is described as follows: proliferation inhibiting effect in explantation (LLC). The series is classed as cell-based. The conditions noted are these: 72 h, 3 days culture with compound, living cells by dye-exclusion (tripan blue). The method, then: (§4) Test 1 (proliferation inhibiting effect in explantation)
(§5) Following carcinomata are employed.
(1) Lewis lung carcinoma (hereinafter referred to as "LLC"),
(§6) 1×10^5 cells of each carcinoma are cultured for 24 hours in an ox serum eagle culture solution with use of a culture test tube and a carbon dioxide gas culturing device (5% CO2, 37° C.). After 24 hours, the used culture solution was flowed-out and each 0.1 ml of a freshly prepared culture solution containing a compound according to the invention was added to further continue the culture for 3 days. After completion of the culture, number of living cells was measured with use of a dye-exclusion method due to tripan blue dying. To each of control groups, 0.1 ml of the same culture solution but containing no compound according to the invention was added.
(§7) Concentrations on 50% inhibition of the carcinoma cells (IC50) were determined between the testing groups and control groups, according to the manner as stated above.

Another series concerns K.B. carcinoma (KB). The series is described as follows: proliferation inhibiting effect in explantation (KB). The series is classed as cell-based. The conditions noted are these: 72 h, 3 days culture with compound, living cells by dye-exclusion (tripan blue). The method, then: as §4, §5
(3) K.B. carcinoma (hereinafter referred to as "KB"), and
as §6, §7

Series [3] has as its system B-16 melanoma carcinoma (B-16). In words: carcinoma cell weight inhibiting effect in mice (B-16). The series is classed as in vivo. The settings on record: BDF mice; oral, 1/5 LD50 one time/day for 5 days; 21 days from final dosage.
Description: (§8) (4) B-16 melanoma carcinoma (hereinafter referred to as "B-16").
as §2, §3

The subject of series [4] is B-16 melanoma carcinoma (B-16). In words: proliferation inhibiting effect in explantation (B-16). The series is classed as cell-based. The conditions noted are these: Mus musculus, B16, 72 h, 3 days culture with compound, living cells by dye-exclusion (tripan blue). The method, then: as §4, §5, §8, §6, §7
Series [5] has as its system Ehrlich ascites carcinoma (EAC). The series is described as follows: proliferation inhibiting effect in explantation (EAC). The series is classed as cell-based. The conditions noted are these: 72 h, 3 days culture with compound, living cells by dye-exclusion (tripan blue). The method, then:
as §4, §5, §1, §6, §7

The mark [6] stands for this setting: ip, abdominal dosage, read-out: Acute Toxicity LD50, Abdominal Dosage.
Setting [7] is: oral dosage, read-out: Acute Toxicity LD50, Oral Dosage.

Values after ≈ are worked out from the molar mass of the structure shown. Where two headings read alike, the source gives them in different places.

Take `CC(=O)NCCSCC[Si](C)(C)C` [SKK-025]: the LD50 at 168 h is roughly 100 mg/kg in the series “acute toxicity” (setting [6]) and 1000 to 2000 mg/kg in “acute toxicity” (setting [7]).

`CCCCCCCC(=O)NCCSCC[Si](C)(C)C` [SKK-027]: the 50% lethal dose (LD50) at 168 h was 2000 to 3000 mg/kg in “acute toxicity” (setting [6]) and greater than 3000 mg/kg in “acute toxicity” (setting [7]).

With `C[Si](C)(C)CCSCCNC(=O)c1cccnc1` [SKK-021], the “inhibiting ratio (carcinoma weight), EAC” value in series [1] is given as 70. The IC50 in series [2] is 5 µg/mL (≈ 17.7 µM); in the series with K.B. carcinoma (KB), 10 µg/mL (≈ 35.4 µM); in series [4] it was less than 5 µg/mL; in series [5], 12 µg/mL (≈ 42.5 µM). Moreover, the figures for the LD50 at 168 h in “acute toxicity” (setting [6]) and in “acute toxicity” (setting [7]) were less than 500 mg/kg and greater than 2000 mg/kg, respectively. Also, in series [3], the “inhibiting ratio (carcinoma weight), B-16” value (shortened to “inhibiting ratio … B-16”) worked out at 93.

In the case of `C[Si](C)(C)CCSCCNC(=O)c1cccc2ccccc12` [SKK-024], the “inhibiting ratio (carcinoma weight), EAC” value in series [1] turned out to be 62. Besides, the IC50 worked out at 13 µg/mL (≈ 39.2 µM) in series [2], 14 µg/mL (≈ 42.2 µM) in the series on K.B. carcinoma (KB), 25 µg/mL (≈ 75.4 µM) in series [4] and 18 µg/mL (≈ 54.3 µM) in series [5]. The LD50 at 168 h in the series “acute toxicity” (setting [6]) was greater than 2000 mg/kg; in the series “acute toxicity” (setting [7]), greater than 3000 mg/kg. Besides, the “inhibiting ratio … B-16” value in series [3] turned out to be 60.

On to `Cc1ccc(S(=O)(=O)NCCSCC[Si](C)(C)C)cc1` [SKK-028], for which the “inhibiting ratio (carcinoma weight), EAC” value in series [1] came out at 55. The IC50 in series [2] was 14 µg/mL (≈ 42.2 µM); in the series with K.B. carcinoma (KB), 10 µg/mL (≈ 30.2 µM); in series [4], 14 µg/mL (≈ 42.2 µM); in series [5] it was 30 µg/mL (≈ 90.5 µM). The values for the LD50 at 168 h in the series “acute toxicity” (setting [6]) and in the series “acute toxicity” (setting [7]) were greater than 2500 mg/kg and greater than 3000 mg/kg, respectively. Also, the “inhibiting ratio … B-16” value in series [3] stood at 85.

With `C[Si](C)(C)CCSCCNC(=O)c1ccccc1` [SKK-012], in series [1], the “inhibiting ratio (carcinoma weight), EAC” value stood at 76. Further, the 50% inhibitory concentration (IC50) in series [2] was determined as 4.3 µg/mL (≈ 15.3 µM); in the series with K.B. carcinoma (KB) it was 17 µg/mL (≈ 60.4 µM); in series [4] it was 16 µg/mL (≈ 56.8 µM); in series [5] it was 15 µg/mL (≈ 53.3 µM). Besides, the 50% lethal dose (LD50) at 168 h was 1190 mg/kg in “acute toxicity” (setting [6]) and greater than 2000 mg/kg in the series “acute toxicity” (setting [7]). Also, the “inhibiting ratio … B-16” value in series [3] worked out at 62.

Take `C[Si](C)(C)CCSCCNC(=O)c1cccs1` [SKK-023]: the values for the LD50 at 168 h in “acute toxicity” (setting [6]) and in “acute toxicity” (setting [7]) were greater than 1000 mg/kg and greater than 2000 mg/kg, respectively.

As for `C=CCNCCSCC[Si](C)(C)C` [SKK-011], the figures for the LD50 at 168 h in the series “acute toxicity” (setting [6]) and in the series “acute toxicity” (setting [7]) were 134 mg/kg and 846 mg/kg, respectively.

Regarding `C[Si](C)(C)CCSCCNC(=O)C1CCCCC1` [SKK-026], the 50% lethal dose (LD50) at 168 h in the series “acute toxicity” (setting [6]) was in the range of 500 to 1000 mg/kg; in the series “acute toxicity” (setting [7]), 1000 to 2000 mg/kg.

As to `CNCCSCC[Si](C)(C)C` [SKK-009], the median lethal dose (LD50) at 168 h in “acute toxicity” (setting [6]) is 189 mg/kg; in “acute toxicity” (setting [7]), 800 mg/kg.

As to `C[Si](C)(C)CCSCCNC(=O)c1ccco1` [SKK-022], the “inhibiting ratio (carcinoma weight), EAC” value in series [1] came out at 65. Besides, the half-maximal inhibitory concentration (IC50) in series [2] worked out at 9 µg/mL (≈ 33.2 µM); in the series with K.B. carcinoma (KB), 17 µg/mL (≈ 62.6 µM); in series [4], 20 µg/mL (≈ 73.7 µM); in series [5] it was 15 µg/mL (≈ 55.3 µM). Moreover, the median lethal dose (LD50) at 168 h in the series “acute toxicity” (setting [6]) was less than 1000 mg/kg; in “acute toxicity” (setting [7]), greater than 2000 mg/kg. Besides, in series [3], the “inhibiting ratio … B-16” value came to 58.

As for `C[Si](C)(C)CCSCCNC1CCCCC1` [SKK-010], the 50% lethal dose (LD50) at 168 h in the series “acute toxicity” (setting [6]) amounted to 152 mg/kg; in “acute toxicity” (setting [7]), 825 mg/kg.

The values above are taken from patent US4560679A, “Organosilicon compounds and antitumor agents containing the compound as effective component” (Sanwa Kagaku Kenkyusho Co. Ltd., priority 1982, dated 1985).
